Measured values as given in patent publication US20090082203A1, “INSECTICIDAL BIS(SUBSTITUTED PHENYL)-1-{[4-(SATURATED HETEROCYCLYL-SUBSTITUTED)PHENYLMETHYL]- (4-PIPERIDYL)}METHANE DERIVATIVES” (priority 2004, published 2009).

Test system: tobacco budworm (Heliothis virescens [Fabricius])
Test: surface-treated diet test against tobacco budworm
Type: in vivo
Conditions: for Percent Growth Inhibition: inhibition of insect weight relative to untreated controls
Protocol: Candidate insecticides were evaluated for activity against the tobacco budworm (Heliothis virescens [Fabricius]) in a surface-treated diet test.
In this test one mL of molten (65-70° C.) wheat germ-based artificial diet was pipetted into each well of a four by six (24 well) multi-well plate (ID# 430345-15.5 mm dia.×17.6 mm deep; Corning Costar Corp., One Alewife Center, Cambridge, Mass. 02140). The diet was allowed to cool to ambient temperature before treatment with candidate insecticide.
For a determination of insecticidal activity, solutions of the candidate insecticides were prepared for testing using a Packard 204DT Multiprobe® Robotic System (Packard Instrument Company, 800 Research Parkway, Meriden, Conn. 06450), in which the robot first diluted a standard 50 millimolar DMSO solution of candidate insecticide with a 1:1 water/acetone solution (V/V) in a ratio of 1:7 stock solution to water/acetone. The robot subsequently pipetted 40 microliters of the so-prepared solution onto the surface of the diet in each of three wells in the 24 multi-well plate. The process was repeated with solutions of seven other candidate insecticides. Once treated, the contents of the multi-well plate were allowed to dry, leaving 0.25 millimoles of candidate insecticide on the surface of the diet, or a concentration of 0.25 millimolar. Appropriate untreated controls containing only DMSO on the diet surface were also included in this test.
For evaluations of the insecticidal activity of a candidate insecticide at varying rates of application, the test was established as described above using sub-multiples of the standard 50 millimolar DMSO solution of candidate insecticide. For example, the standard 50 millimolar solution was diluted by the robot with DMSO to give 5, 0.5, 0.05, 0.005, 0.0005 millimolar, or more dilute solutions of the candidate insecticide. In these evaluations there were six replicates of each rate of application placed on the surface of the diet in the 24 multi-well plate, for a total of four rates of application of candidate insecticide in each plate.
In each well of the test plate was placed one second instar tobacco budworm larvae, each weighing approximately five milligrams. After the larvae were placed in each well, the plate was sealed with clear polyfilm adhesive tape. The tape over each well was perforated to ensure an adequate air supply. The plates were then held in a growth chamber at 25° C. and 60% relative humidity for five days (light 14 hours/day).
After the five-day exposure period insecticidal activity for each rate of application of candidate insecticide was assessed as percent inhibition of insect weight relative to the weight of insects from untreated controls, and percent mortality when compared to the total number of insects infested.
The test compounds of formula I are identified by numbers that correspond to those in Table 1.

[1] = 0.25 millimolar on the surface of the diet, second instar larvae, five-day exposure, compared to the total number of insects infested
[2] = 0.25 millimolar on the surface of the diet, second instar larvae, five-day exposure

Compound | Percent Mortality [1] | Percent Growth Inhibition [2] | Percent Mortality (in vivo)
CCCCN1CCOC1c1ccc(CN2CCC(C(O)(c3ccc(OC(F)(F)F)cc3)c3ccc(OC(F)(F)F)cc3)CC2)cc1 (stereo not drawn) [Compound 98] | 100% | 100% | 
OC(c1ccc(OC(F)(F)F)cc1)(c1ccc(OC(F)(F)F)cc1)C1CCN(Cc2ccc(C3(c4ccoc4)OCCO3)cc2)CC1 [Compound 99] | 100% | 100% | 
[O-][N+]1(Cc2ccc(C3(c4ccoc4)OCCO3)cc2)CCC(C(O)(c2ccc(OC(F)(F)F)cc2)c2ccc(OC(F)(F)F)cc2)CC1 (stereo not drawn) [Compound 101] | 100% | 100% | 
OC(c1ccc(OC(F)(F)F)cc1)(c1ccc(OC(F)(F)F)cc1)C1CCN(Cc2ccc(C3COCO3)cc2)CC1 (stereo not drawn) [Compound 103] | 100% | 100% | 
[O-][N+]1(Cc2ccc(C3COCO3)cc2)CCC(C(O)(c2ccc(OC(F)(F)F)cc2)c2ccc(OC(F)(F)F)cc2)CC1 (stereo not drawn) [Compound 104] | 100% | 100% | 
[O-][N+]1(Cc2ccc(C3OCC4OC4CO3)cc2)CCC(C(O)(c2ccc(OC(F)(F)F)cc2)c2ccc(OC(F)(F)F)cc2)CC1 (stereo not drawn) [Compound 105] | 100% | 100% | 
NC1(CO)COC(c2ccc(CN3CCC(C(O)(c4ccc(OC(F)(F)F)cc4)c4ccc(OC(F)(F)F)cc4)CC3)cc2)OC1 (stereo not drawn) [Compound 107] | 100% | 100% | 
OC(c1ccc(OC(F)(F)F)cc1)(c1ccc(OC(F)(F)F)cc1)C1CCN(Cc2ccc(C3OCC(CN4CCCC4)O3)cc2)CC1 (stereo not drawn) [Compound 108] | 33% | 97% | 
[O-][N+]1(Cc2ccc(C3OCC(CN4CCCC4)O3)cc2)CCC(C(O)(c2ccc(OC(F)(F)F)cc2)c2ccc(OC(F)(F)F)cc2)CC1 (stereo not drawn) [Compound 110] | 100% | 100% | 
CC1(C)COC(c2ccc(CN3CCC(C(O)(c4ccc(OC(F)(F)F)cc4)c4ccc(OC(F)(F)F)cc4)CC3)cc2)O1 (stereo not drawn) [Compound 111] | 100% | 100% | 
CC1(C)COC(c2ccc(C[N+]3([O-])CCC(C(O)(c4ccc(OC(F)(F)F)cc4)c4ccc(OC(F)(F)F)cc4)CC3)cc2)O1 (stereo not drawn) [Compound 112] | 100% | 100% | 
OC(c1ccc(OC(F)(F)F)cc1)(c1ccc(OC(F)(F)F)cc1)C1CCN(Cc2ccc(C3O[C@H]4CCCC[C@H]4O3)cc2)CC1 (stereo partly drawn) [Compound 115] | 100% | 100% | 
OC(c1ccc(OC(F)(F)F)cc1)(c1ccc(OC(F)(F)F)cc1)C1CCN(Cc2ccc(C3O[C@H]4COC[C@H]4O3)cc2)CC1 (stereo partly drawn) [Compound 116] | 100% | 100% | 
[O-][N+]1(Cc2ccc(C3O[C@H]4CCCC[C@H]4O3)cc2)CCC(C(O)(c2ccc(OC(F)(F)F)cc2)c2ccc(OC(F)(F)F)cc2)CC1 (stereo partly drawn) [Compound 117] | 100% | 100% | 
[O-][N+]1(Cc2ccc(C3O[C@H]4COC[C@H]4O3)cc2)CCC(C(O)(c2ccc(OC(F)(F)F)cc2)c2ccc(OC(F)(F)F)cc2)CC1 (stereo partly drawn) [Compound 118] | 100% | 100% | 
OC(c1ccc(OC(F)(F)F)cc1)(c1ccc(OC(F)(F)F)cc1)C1CCN(Cc2ccc(C3O[C@H]4CCC[C@H]4O3)cc2)CC1 (stereo partly drawn) [Compound 119] | 100% | 100% | 
CC1OC(c2ccc(CN3CCC(C(O)(c4ccc(OC(F)(F)F)cc4)c4ccc(OC(F)(F)F)cc4)CC3)cc2)OC1C (stereo not drawn) [Compound 121] | 100% | 100% | 
CC1(C)OC(c2ccc(CN3CCC(C(O)(c4ccc(OC(F)(F)F)cc4)c4ccc(OC(F)(F)F)cc4)CC3)cc2)OC1(C)C [Compound 122] | 100% | 100% | 
[O-][N+]1(Cc2ccc(C3O[C@H]4CCC[C@H]4O3)cc2)CCC(C(O)(c2ccc(OC(F)(F)F)cc2)c2ccc(OC(F)(F)F)cc2)CC1 (stereo partly drawn) [Compound 123] | 100% | 100% | 
CC1(C)OC(c2ccc(C[N+]3([O-])CCC(C(O)(c4ccc(OC(F)(F)F)cc4)c4ccc(OC(F)(F)F)cc4)CC3)cc2)OC1(C)C (stereo not drawn) [Compound 126] | 100% | 100% | 

Compound | Percent Mortality [1] | Percent Growth Inhibition [2] | Percent Mortality (in vivo)
OC(c1ccc(OC(F)(F)F)cc1)(c1ccc(OC(F)(F)F)cc1)C1CCN(Cc2ccc(C3OC4CCCCC4O3)cc2)CC1 (stereo not drawn) [Compound 127] | 100% | 100% | 
OC(c1ccc(Cl)c(Cl)c1)(c1ccc(Cl)c(Cl)c1)C1CCN(Cc2ccc(C3OCCO3)cc2)CC1 [Compound 145] | 100% | 100% | 
Cc1cc(CN2CCC(C(O)(c3ccc(OC(F)(F)F)cc3)c3ccc(OC(F)(F)F)cc3)CC2)ccc1C1OCCO1 [Compound 169] |  | 100% | 100%
Cc1cc(C[N+]2([O-])CCC(C(O)(c3ccc(OC(F)(F)F)cc3)c3ccc(OC(F)(F)F)cc3)CC2)ccc1C1OCCO1 (stereo not drawn) [Compound 170] |  | 100% | 100%
OC(c1ccc(OC(F)(F)F)cc1)(c1ccc(OC(F)(F)F)cc1)C1CCN(Cc2ccc(C3OCCO3)c(Cl)c2)CC1 [Compound 171] | 100% | 100% | 
OC(c1ccc(OC(F)(F)F)cc1)(c1ccc(OC(F)(F)F)cc1)C1CCN(Cc2ccc(C3OCCO3)c(C(F)(F)F)c2)CC1 [Compound 172] | 100% | 100% | 
OC(c1ccc(OC(F)(F)F)cc1)(c1ccc(OC(F)(F)F)cc1)C1CCN(Cc2ccc(C3OCCO3)c(F)c2)CC1 [Compound 173] | 100% | 100% | 
[O-][N+]1(Cc2ccc(C3OCCO3)c(F)c2)CCC(C(O)(c2ccc(OC(F)(F)F)cc2)c2ccc(OC(F)(F)F)cc2)CC1 (stereo not drawn) [Compound 175] | 100% | 100% | 
CC1COC(c2ccc(CN3CCC(C(O)(c4ccc(Cl)c(Cl)c4)c4ccc(Cl)c(Cl)c4)CC3)cc2)O1 (stereo not drawn) [Compound 176] | 100% | 100% | 
CC1COC(c2ccc(C[N+]3([O-])CCC(C(O)(c4ccc(Cl)c(Cl)c4)c4ccc(Cl)c(Cl)c4)CC3)cc2)O1 (stereo not drawn) [Compound 177] | 100% | 100% | 
CC1COC(c2ccc(CN3CCC(C(c4ccc(OC(F)(F)F)cc4)c4ccc(OC(F)(F)F)cc4)CC3)cc2)O1 (stereo not drawn) [Compound 178] | 100% | 100% | 
CC1COC(c2ccc(CN3CCC(C(O)(c4ccc(OC(F)(F)F)cc4)c4ccc(OC(F)(F)F)cc4)CC3)cc2F)O1 (stereo not drawn) [Compound 179] | 100% | 100% | 
CC1COC(c2ccc(C[N+]3([O-])CCC(C(O)(c4ccc(OC(F)(F)F)cc4)c4ccc(OC(F)(F)F)cc4)CC3)cc2F)O1 (stereo not drawn) [Compound 180] | 100% | 100% | 
[O-][N+]1(Cc2ccc(C3OCCO3)c(Cl)c2)CCC(C(O)(c2ccc(OC(F)(F)F)cc2)c2ccc(OC(F)(F)F)cc2)CC1 (stereo not drawn) [Compound 181] | 100% | 100% | 
[O-][N+]1(Cc2ccc(C3OCCO3)c(C(F)(F)F)c2)CCC(C(O)(c2ccc(OC(F)(F)F)cc2)c2ccc(OC(F)(F)F)cc2)CC1 (stereo not drawn) [Compound 182] | 100% | 100% | 
OC(c1ccc(OC(F)(F)F)cc1)(c1ccc(OC(F)(F)F)cc1)C1CCN(Cc2ccc(CC3OCCO3)cc2)CC1 [Compound 183] | 100% | 100% | 
[O-][N+]1(Cc2ccc(CC3OCCO3)cc2)CCC(C(O)(c2ccc(OC(F)(F)F)cc2)c2ccc(OC(F)(F)F)cc2)CC1 (stereo not drawn) [Compound 184] | 100% | 100% | 
[O-][N+]1(Cc2ccc(OCC3(c4ccccc4)OCCO3)cc2)CCC(C(O)(c2ccc(OC(F)(F)F)cc2)c2ccc(OC(F)(F)F)cc2)CC1 (stereo not drawn) [Compound 185] | 100% | 100% | 
OC(c1ccc(OC(F)(F)F)cc1)(c1ccc(OC(F)(F)F)cc1)C1CCN(Cc2ccc(OCC3(c4ccccc4)OCCO3)cc2)CC1 [Compound 186] | 100% | 100% | 
